Measured values from patent publication US8580788B2, “Opioid antagonists” (Adolor Corporation, priority 2005, dated 2013).

Columns and labels:
[1] = biological target: T1, cloned human μ opioid receptor (Homo sapiens (Human), UniProt P35372); assay: inhibition of agonist-stimulated [35S]GTPγS binding (in vitro antagonist activity), μ opioid receptor; type: biochemical; settings: inhibition of loperamide (EC80)-stimulated [35S]GTPγS binding to membranes
Description: The potencies of the antagonists were assessed by their abilities to inhibit agonist-stimulated [^35S]GTPγS binding to membranes containing the cloned human μ, κ, or δ opioid receptors. The agonists used were loperamide for the μ opioid receptor.
To determine the IC50 value, which was the concentration to give half-maximal inhibition of agonist-stimulated [^35S]GTPγS binding, the amount of [^35S]GTPγS bound in the presence of a fixed concentration of agonist and various concentrations of antagonist was measured. The fixed concentration of agonist was the EC80 for the agonist, which was the concentration to give 80% of the relative maximum stimulation of [^35S]GTPγS binding. The IC50 value was determined from a best nonlinear regression fit of the data to the following equation,
[formula] where Y is the amount of [^35S]GTPγS bound at each concentration of antagonist, Bottom is the calculated amount of [^35S]GTPγS bound in the presence of an infinite concentration of antagonist, Top is the calculated amount of [^35S]GTPγS bound in the absence of added antagonist, X is the logarithm of the concentration of antagonist, and LogIC50 is the logarithm of the concentration of antagonist where the amount of [^35S]GTPγS bound is halfway between Bottom and Top. The nonlinear regression fit was performed using GraphPad Prism® version 3.00 for Windows (GraphPad Software, San Diego, Calif.).

[2] = biological target: cloned human κ opioid receptor (Homo sapiens (Human), UniProt P41145); assay: [3H]diprenorphine receptor binding, κ opioid receptor; settings: inhibition of [3H]diprenorphine binding; Cheng-Prusoff correction of IC50
Chain of cloned human κ opioid receptor (P41145 whole entry): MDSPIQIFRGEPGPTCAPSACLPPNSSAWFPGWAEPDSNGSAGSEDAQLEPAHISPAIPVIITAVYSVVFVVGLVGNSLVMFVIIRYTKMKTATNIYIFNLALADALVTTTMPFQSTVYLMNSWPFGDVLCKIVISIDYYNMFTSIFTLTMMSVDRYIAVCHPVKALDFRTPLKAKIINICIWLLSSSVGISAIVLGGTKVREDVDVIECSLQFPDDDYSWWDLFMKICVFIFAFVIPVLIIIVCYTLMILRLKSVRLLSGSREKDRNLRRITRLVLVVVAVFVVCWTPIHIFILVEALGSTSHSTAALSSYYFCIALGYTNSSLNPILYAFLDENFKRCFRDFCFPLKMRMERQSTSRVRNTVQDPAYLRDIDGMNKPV
Description: (§1) IC50 values were obtained by nonlinear analysis of the data using GraphPad Prism version 3.00 for Windows (GraphPad Software, San Diego). Ki values were obtained by Cheng-Prusoff corrections of IC50 values.
(§2) The receptor binding method (DeHaven and DeHaven-Hudkins, 1998) was a modification of the method of Raynor et al. (1994). After dilution in buffer A and homogenization as before, membrane proteins (10-80 μg) in 250 μL were added to mixtures containing test compound and [^3H]diprenorphine (0.5 to 1.0 nM, 40,000 to 50,000 dpm) in 250 μL of buffer A in 96-well deep-well polystyrene titer plates (Beckman). After incubation at room temperature for one hour, the samples were filtered through GF/B filters that had been presoaked in a solution of 0.5% (w/v) polyethylenimine and 0.1% (w/v) bovine serum albumin in water. The filters were rinsed 4 times with 1 mL of cold 50 mM Tris HCl, pH 7.8 and radioactivity remaining on the filters determined by scintillation spectroscopy. Nonspecific binding was determined by the minimum values of the titration curves and was confirmed by separate assay wells containing 10 μM naloxone.
(§3) To determine the equilibrium dissociation constant for the inhibitors (Ki), radioligand bound (cpm) in the presence of various concentrations of test compounds was measured. The concentration to give half-maximal inhibition (EC50) of radioligand binding was determined from a best nonlinear regression fit to the following equation,
(§4) [formula] where Y is the amount of radioligand bound at each concentration of test compound, Bottom is the calculated amount of radioligand bound in the presence of an infinite concentration of test compound, Top is the calculated amount of radioligand bound in the absence of test compound, X is the logarithm of the concentration of test compound, and LogEC50 is the log of the concentration of test compound where the amount of radioligand bound is half-way between Top and Bottom. The nonlinear regression fit was performed using the program Prism® (GraphPad Software, San Diego, Calif.). The Ki values were then determined from the EC50 values by the following equation,
(§5) [formula] where [ligand] is the concentration of radioligand and Kd is the equilibrium dissociation constant for the radioligand.

[3] = biological target: T1, cloned human μ opioid receptor; assay: [3H]diprenorphine receptor binding, μ opioid receptor; settings: inhibition of [3H]diprenorphine binding; Cheng-Prusoff correction of IC50
Description: as §1, §2, §3, §4, §5

[4] = biological target: cloned human δ opioid receptor (Homo sapiens (Human), UniProt P41143); assay: [3H]diprenorphine receptor binding, δ opioid receptor; settings: inhibition of [3H]diprenorphine binding; Cheng-Prusoff correction of IC50
Chain of cloned human δ opioid receptor (P41143 whole entry): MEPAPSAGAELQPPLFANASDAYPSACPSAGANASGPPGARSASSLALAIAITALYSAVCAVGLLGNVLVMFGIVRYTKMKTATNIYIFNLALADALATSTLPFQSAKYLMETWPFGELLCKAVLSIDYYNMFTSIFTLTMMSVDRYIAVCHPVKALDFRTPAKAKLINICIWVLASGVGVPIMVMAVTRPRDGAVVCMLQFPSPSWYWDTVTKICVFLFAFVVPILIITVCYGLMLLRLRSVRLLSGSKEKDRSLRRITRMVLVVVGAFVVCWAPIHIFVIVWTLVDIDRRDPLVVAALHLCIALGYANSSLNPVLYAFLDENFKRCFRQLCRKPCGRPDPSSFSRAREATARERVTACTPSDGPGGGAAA
Description: as §1, §2, §3, §4, §5

T1 sequence (P35372 whole entry): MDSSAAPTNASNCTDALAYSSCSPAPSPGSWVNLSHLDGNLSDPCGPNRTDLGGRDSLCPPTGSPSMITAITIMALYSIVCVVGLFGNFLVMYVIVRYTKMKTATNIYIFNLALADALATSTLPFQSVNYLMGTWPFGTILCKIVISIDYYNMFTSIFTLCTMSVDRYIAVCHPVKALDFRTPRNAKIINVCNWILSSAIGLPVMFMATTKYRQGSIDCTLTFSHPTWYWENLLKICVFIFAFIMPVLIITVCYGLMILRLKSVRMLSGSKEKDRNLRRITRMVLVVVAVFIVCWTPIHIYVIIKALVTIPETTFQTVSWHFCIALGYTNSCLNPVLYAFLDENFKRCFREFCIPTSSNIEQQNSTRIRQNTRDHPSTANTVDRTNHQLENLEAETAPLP

| SMILES | IC50 [1] | Ki [2] | Ki [3] | Ki [4] |
| --- | --- | --- | --- | --- |
| C[C@H]1CN2C[C@H](c3ccccc3)CC[C@H]2C[C@@]1(C)c1cccc(O)c1 [Example 1, 3-((2R,3R,7S,9αS)-2,3-dimethyl-7-phenyl-octahydro-1H-quinolizin-2-yl)phenol] | 0.53 nM | 8.9 nM | 0.57 nM | 30 nM |
| C[C@H]1CN2CCN(CCc3ccccc3)C[C@H]2C[C@@]1(C)c1cccc(O)c1 [Example 2B, 3-((7R,8R,9αR)-7,8-dimethyl-2-phenethyl-octahydro-1H-pyrido[1,2-α]pyrazin-8-yl)phenol] | 21 nM | 112 nM |  | 242 nM |
| C[C@H]1CN2CCN(C(=O)c3ccccc3)C[C@H]2C[C@@]1(C)c1cccc(O)c1 [Example 2C, ((7R,8R,9αR)-8-(3-hydroxyphenyl)-7,8-dimethyl-hexahydro-1H-pyrido[1,2-α]pyrazin-2(6H)-yl)(phenyl)methanone] | 21 nM | 190 nM | 2 nM | 25 nM |
| C[C@H]1CN2CCN(Cc3ccccc3)C[C@H]2C[C@@]1(C)c1cccc(O)c1 [Example 2D, 3-((7R,8R,9αR)-2-benzyl-7,8-dimethyl-octahydro-1H-pyrido[1,2-α]pyrazin-8-yl)phenol] | 11 nM | 44 nM | 1.1 nM | 139 nM |
| C[C@H]1CN2C[C@H](c3ccccc3)NC[C@H]2C[C@@]1(C)c1cccc(O)c1 [Example 3A, 3-((3S,7R,8R,9αR)-7,8-dimethyl-3-phenyl-octahydro-1H-pyrido[1,2-α]pyrazin-8-yl)phenol] | 12 nM | 18 nM | 3.6 nM | 88 nM |
| C[C@H]1CN2C[C@H](c3ccccc3)N(C)C[C@H]2C[C@@]1(C)c1cccc(O)c1 [Example 3B, 3-((3S,7R,8R,9αR)-2,7,8-trimethyl-3-phenyl-octahydro-1H-pyrido[1,2-α]pyrazin-8-yl)phenol] | 26 nM | 12 nM | 3.3 nM | 716 nM |
| C[C@H]1CN2C[C@H](Cc3ccccc3)NC[C@H]2C[C@@]1(C)c1cccc(O)c1 [Example 4, 3-((3S,7R,8R,9αR)-3-benzyl-7,8-dimethyl-octahydro-1H-pyrido[1,2-α]pyrazin-8-yl)phenol] | 29 nM | 85 nM | 8.9 nM | 36 nM |
